According to patent publication US6242494A, “Substituted β-amino acid inhibitors of methionine aminopeptidase-2” (Abbott Laboratories, priority 1999, dated 2001):
Structures can show the parent of a compound that is named as a salt.

Columns and labels:
angiogenesis = conditions: cited from earlier work; for inhibition of angiogenesis: result in words
endothelial cell cycle = conditions: late G1 phase; result in words; cited from earlier work
[1] = system: type 2 methionine aminopeptidase, MetAP2; conditions: result in words; cited from earlier work
MetAP2 = conditions: result in words; cited from earlier work
[2] = biological target: T1, methionine aminopeptidase-2 (MetAP2) (Homo sapiens, UniProt P50579); experiment: Inhibition of MetAP2 enzyme activity (96-well, Met-Ala-Ser substrate, L-amino acid oxidase/peroxidase/ortho-dianisidine, 450 nm); format: biochemical; conditions: IC50, recombinant MetAP2 4 μg/mL, pH 7.4, Met-Ala-Ser substrate, 20 minutes
T1 construct: made in house; host or cells: insect cells, baculovirus system (secreted, purified from culture supernatant)
T1 sequence (P50579 whole entry): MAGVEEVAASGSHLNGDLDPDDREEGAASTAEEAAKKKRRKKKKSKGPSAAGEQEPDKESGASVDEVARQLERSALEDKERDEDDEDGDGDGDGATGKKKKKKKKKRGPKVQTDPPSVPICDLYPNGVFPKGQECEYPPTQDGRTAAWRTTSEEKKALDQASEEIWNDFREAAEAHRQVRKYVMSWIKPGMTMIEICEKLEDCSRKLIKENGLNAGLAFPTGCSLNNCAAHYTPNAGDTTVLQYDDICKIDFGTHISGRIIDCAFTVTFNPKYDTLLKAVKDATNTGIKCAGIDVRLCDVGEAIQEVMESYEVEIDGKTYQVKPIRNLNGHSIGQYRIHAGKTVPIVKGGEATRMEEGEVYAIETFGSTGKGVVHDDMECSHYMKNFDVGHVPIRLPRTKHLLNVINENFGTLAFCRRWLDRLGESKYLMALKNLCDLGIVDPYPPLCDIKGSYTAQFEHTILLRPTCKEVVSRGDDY

Row | SMILES | inhibition of angiogenesis (angiogenesis) | inhibition of neovascularization by arresting the endothelial cell cycle (endothelial cell cycle) | mode of MetAP2 inhibition (MetAP2) | IC50 [2] [µM] | further results
1 | CO[C@@H]1[C@H](OC(=O)NC(=O)CCl)CC[C@]2(CO2)[C@H]1[C@@]1(C)O[C@@H]1CC=C(C)C [TNP-470, O-(chloroacetylcarbamoyl)fumagillol] | potent inhibitors of angiogenesis | effective in inhibiting neovacularization by arresting the endothelial cell cycle in the late G1 phase | irreversible inhibitors |  | potency as angiogenesis inhibitor relative to natural precursor fumagillin (angiogenesis; more potent than fumagillin): 50 fold; binding to MetAP2 [1]: bind to a common bifunctional protein, type 2 methionine aminopeptidase, MetAP2
2 | CO[C@@H]1[C@H](OC(=O)/C=C/C=C/C=C/C=C/C(=O)O)CC[C@]2(CO2)[C@H]1[C@@]1(C)O[C@@H]1CC=C(C)C [fumagillin] | potent inhibitors of angiogenesis | effective in inhibiting neovacularization by arresting the endothelial cell cycle in the late G1 phase | irreversible inhibitors |  | 
3 | N[C@H](CC1CCCCC1)C(O)C(=O)N[C@@H](CO)C(=O)OCc1ccc(C(F)(F)F)cc1 (stereo partly drawn) [Example 140, 4-(trifluoromethyl)benzyl (2RS,3R,2'S)-2-((3-amino-4-cyclohexyl-2-hydroxybutanoyl)amino)-3-hydroxypropanoate trifluoroacetate] |  |  |  | 2.2 | 
4 | CSCC[C@@H](N)C(O)C(=O)O (mixture of isomers) [Example 18, (2RS,3R)-3-amino-2-hydroxy-5-(methylthio)pentanoic acid] |  |  |  | 0.15 | 
5 | CC(C)(NC(=O)C(O)[C@H](N)CC1CCCCC1)C(=O)OCc1ccccc1 (stereo partly drawn) [Example 89, Hydrochloride] |  |  |  | 6.6 | 
6 | N[C@H](CC1CCCCC1)C(O)C(=O)NCCc1cccc(Cl)c1 (mixture of isomers) [Example 199, (2RS,3R)-3-amino-N-(3-chlorophenethyl)-4-cyclohexyl-2-hydroxybutanamide hydrochloride] |  |  |  | 1 | 
